Test results taken from patent US20150212068A1, “Cholyl-L-Lysyl-Fluorescein Assay” (Novassay SA, priority 2012, published 2015).
“Also recorded” adds a separate entry of the source.

Experiments:
[1] = Stability of CLF in human plasma at room temperature and 4° C. after 30 min pre-incubation in whole blood at 37° C. (Test 2), HPLC-MS/MS; assay type: in vitro ADME; details: for CLF concentration: plasma after 30 min blood pre-incubation at 37° C., mean ± SEM (n = 2); for percentage of compound remaining (by comparing with content at To), lowest over incubation / CLF remaining: plasma after blood pre-incubation; for percentage of compound remaining (by comparing with content at To), lowest over incubation: up to 24 h; for CLF remaining: vs To
Protocol: Eighty microliters (80 μl) of the working solution of CLF were added to 8 ml of human EDTA blood. The final concentration of CLF in blood was of 100 ng/ml. Then, sample was incubated at 37° C. in water bath for 30 min and plasma was prepared as described previously. Plasma was then divided into two equal fractions of 2 ml each. One fraction was incubated at room temperature and the second one was incubated at 4° C. in a cold room. Two aliquots of 200 μl were taken from both fractions just before incubation and after 30 min, 120 min and 24 h of incubation. Samples were stored at −70° C. until further analysis. […] Thus, a stock solution of IS at 100 μg/ml in acetonitrile was 50-fold diluted in acetonitrile in order to obtain a final concentration of 2 μg/ml. Then, 200 μl of this solution were added to each plasma sample in order to precipitate the proteins. Samples were vortexed/mixed and centrifuged 5 min at 20,000 g (4° C.). After centrifugation, the clear supernatant (around 250 μl) was transferred into 1.2 ml HPLC glass vials and sealed. Samples were placed into the refrigerated autosampler and 20 μl were injected into the HPLC-MS/MS system. Test samples were injected twice. […] The injected volume of sample was 20 μl and the “full loop” mode was applied. The temperature of the analytical column was kept at 30° C. CLF and its IS were separated on an Acclaim 120 C18 column (5 μm, 2.1×100 mm, Dionex) by elution with a linear gradient of acetonitrile in water as described in Table 6. An ion trap mass spectrometer equipped with an ESI interface was operated in the positive ionization mode. For each compound, the most abundant ion formed in MS was selected for MS/MS fragmentations. In order to increase the sensitivity and the specificity of the method, the MRM mode was selected. The most specific daughter ions formed in MS/MS were used for quantification.

[2] = Stability of CLF spiked directly in human plasma at room temperature and 4° C. (Test 3), HPLC-MS/MS; assay type: in vitro ADME; details: for CLF concentration: human plasma spiked 100 ng/ml, mean ± SEM (n = 2); for CLF remaining: human plasma, vs To; for percentage of compound remaining (by comparing with content at To), lowest over incubation: plasma, up to 24 h
Protocol: Test 3: […] The final concentration of CLF was of 100 ng/ml. Two aliquots of 200 μl of plasma spiked with CLF were taken (To) and the remaining solution was divided in 2 equal fractions. One fraction was incubated at room temperature and the second one was incubated at 4° C. Two aliquots of 200 μl were taken from both fractions after 30 min, 120 min and 24 h of incubation. Samples were stored at −70° C. until further analysis. […] Thus, a stock solution of IS at 100 μg/ml in acetonitrile was 50-fold diluted in acetonitrile in order to obtain a final concentration of 2 μg/ml. Then, 200 μl of this solution were added to each plasma sample in order to precipitate the proteins. Samples were vortexed/mixed and centrifuged 5 min at 20,000 g (4° C.). After centrifugation, the clear supernatant (around 250 μl) was transferred into 1.2 ml HPLC glass vials and sealed. Samples were placed into the refrigerated autosampler and 20 μl were injected into the HPLC-MS/MS system. Test samples were injected twice. […] The injected volume of sample was 20 μl and the “full loop” mode was applied. The temperature of the analytical column was kept at 30° C. CLF and its IS were separated on an Acclaim 120 C18 column (5 μm, 2.1×100 mm, Dionex) by elution with a linear gradient of acetonitrile in water as described in Table 6. An ion trap mass spectrometer equipped with an ESI interface was operated in the positive ionization mode. For each compound, the most abundant ion formed in MS was selected for MS/MS fragmentations. In order to increase the sensitivity and the specificity of the method, the MRM mode was selected. The most specific daughter ions formed in MS/MS were used for quantification.

[3] = room temperature (25 ± 2° C.), 0.0 hours
[4] = room temperature (25 ± 2° C.), 0.5 hours
[5] = room temperature (25 ± 2° C.), 2.0 hours
[6] = room temperature (25 ± 2° C.), 24.0 hours

Compound `CC(CCC(=O)NC(CCCCNC(=S)Nc1ccc(-c2c3ccc(=O)cc-3oc3cc(O)ccc23)c(C(=O)O)c1)C(=O)O)C1CCC2C3C(O)CC4CC(O)CCC4(C)C3CC(O)C12C` [CLF, Cholyl-L-Lysyl-Fluorescein] has a plasmatic concentrations measured ([1]; blood spiked with 100 ng/ml, plasma at 4° C. and room temperature, 0-24 h) of 147.7 to 164.9 ng/mL, a CLF concentration ([1]; 4° C., 0.0 hours) of 163.3 ± 3.6 ng/mL and a CLF concentration ([1]; 4° C., 0.5 hours) of 155.4 ± 7.0 ng/mL. For the same compound, the CLF concentration ([1]; 4° C., 2.0 hours) was 164.9 ± 4.2 ng/mL, the CLF concentration ([1]; 4° C., 24.0 hours) was 152.7 ± 4.2 ng/mL and the CLF concentration [1, 3] was 163.3 ± 3.6 ng/mL. For the same compound, the CLF concentration [1, 4] was 159.3 ± 0.6 ng/mL, the CLF concentration [1, 5] was 151.1 ± 0.8 ng/mL and the CLF concentration [1, 6] was 147.7 ± 3.7 ng/mL. The “percentage of compound remaining (by comparing with content at To), lowest over incubation” value (shortened to “percentage of compound remaining”) ([1]; 4° C.) was ≥ 93.5%, the “percentage of compound remaining” value ([1]; room temperature) was “at least 90.5%” and the CLF remaining ([1]; 4° C., 0.0 hours) was 100.0%. For the same compound, the CLF remaining ([1]; 4° C., 0.5 hours) was 95.2%, the CLF remaining ([1]; 4° C., 2.0 hours) was 101.0% and the CLF remaining ([1]; 4° C., 24.0 hours) was 93.5%. For the same compound, the CLF remaining [1, 3] was 100.0%, the CLF remaining [1, 4] was 97.6% and the CLF remaining [1, 5] was 92.5%. The CLF remaining [1, 6] was 90.5%, the “CLF stability in plasma after pretreatment of whole blood at 37° C.” value ([1]; room temperature and 4° C., up to 24 hours) was “stable during 24 h; also recorded: stable under these conditions” and the “CLF stability directly in plasma” value ([2]; 4° C. and room temperature, 24 h) was “stable for 24 h”. It also gave a CLF concentration ([2]; 4° C., 0.0 hours) of 101.9 ± 4.6 ng/mL, a CLF concentration ([2]; 4° C., 0.5 hours) of 101.4 ± 3.5 ng/mL and a CLF concentration ([2]; 4° C., 2.0 hours) of 89.9 ± 3.4 ng/mL. The CLF concentration ([2]; 4° C., 24.0 hours) was 94.5 ± 3.6 ng/mL, the CLF concentration [2, 3] was 101.9 ± 4.6 ng/mL and the CLF concentration [2, 4] was 85.3 ± 0.0 ng/mL. The CLF concentration [2, 5] was 93.2 ± 0.0 ng/mL, the CLF concentration [2, 6] was 100.7 ± 3.3 ng/mL and the CLF remaining ([2]; 4° C., 0.0 hours) was 100.0%. For the same compound, the CLF remaining ([2]; 4° C., 0.5 hours) was 99.5%, the CLF remaining ([2]; 4° C., 2.0 hours) was 88.2% and the CLF remaining ([2]; 4° C., 24.0 hours) was 92.7%. The CLF remaining [2, 3] was 100.0%, the CLF remaining [2, 4] was 83.7% and the CLF remaining [2, 5] was 91.4%. The CLF remaining [2, 6] was 98.8%, the plasmatic concentrations measured ([2]; plasma spiked with 100 ng/ml, 4° C. and room temperature, 0-24 h) was 85.3 to 101.9 ng/mL and the “percentage of compound remaining” value ([2]; 4° C.) was ≥ 88.2%. The “percentage of compound remaining” value ([2]; room temperature) was “at least 83.7%”.
